How the values were obtained:
NS5 = biological target: T1, NS5 (Dengue virus type 2, UniProt P14340); assay: affinity to full-length DENV NS5 recombinant protein (phage display peptide library screening); type: binding, DENV-2
T1 construct: His6 (C); made in house; host or cells: E. coli BL21 (DE3), pET 30a/NS5
Procedure: 1) The protein solution is diluted with 0.1 M NaHCO3 to 100 μg/mL. Each time, 0.7 mL of the protein solution is added dropwise to a (φ35 mm polyethylene culture dish, which is gently shaken to soak the dish, which is then coated overnight at 4° C., The coating solution is aspirated and discarded; 2 mL of a blocking solution is added, and left at 4° C. for 2 h; the blocking solution is discarded, and the plate is tap-dried; the plate is washed 6 times with TBST (TBS+0,1%[V/V]Tween−20), and tap-dried each time. […]
3) The eluted phage is added to 10 mL of the host bacterial Tet-LB culture solution (OD600 to 0.5) and then amplified; after 5 hours of culture, the culture solution is collected to purify the phage, and used for the next round of screening after the titer is measured. […]

DENV 2 = assay: cell poisoning experiments: inhibition of DENV 2 replication; type: cell-based, dengue virus
dengue virus type 1 = assay: inhibition of replication of dengue virus type 1; type: cell-based
dengue virus type 3 = assay: inhibition of replication of dengue virus type 3; type: cell-based
dengue virus type 4 = assay: inhibition of replication of dengue virus type 4; type: cell-based
dengue virus = assay: inhibition of dengue virus replication (serotype not given); type: cell-based; conditions: serotype not stated

Substance: KHGHHRH [Lys-His-Gly-His-His-Arg-His]
- affinity for NS5 (NS5): high specific affinity
- inhibitory effect on the replication of DENV 2 virus (DENV 2): significant inhibitory effect
- inhibitory effect on the replication of dengue virus type 1 (dengue virus type 1): significant inhibitory effect
- inhibitory effect on the replication of dengue virus type 3 (dengue virus type 3): significant inhibitory effect
- inhibitory effect on the replication of dengue virus type 4 (dengue virus type 4): significant inhibitory effect
- inhibitory effect on dengue virus replication (dengue virus): highly effective inhibitory effect
- inhibitory effect on dengue virus replication (dengue virus; listed as oligopeptide): effectively inhibit

From patent US20210040153A1, “OLIGOPEPTIDE HAVING DENGUE VIRUS REPLICATION INHIBITION FUNCTION AND APPLICATION THEREOF” (priority 2018, published 2021)
